# Article PMC9104902, “Spiro-Oxindole Skeleton Compounds Are Efficient Inhibitors for Indoleamine 2,3-Dioxygenase 1: An Attractive Target for Tumor Immunotherapy” (International Journal of Molecular Sciences, 2022)
# Entries after “also recorded” stand apart in the source; their conditions may differ.
# Assays:
# IDO1 [1] = target: T1, IDO1 (Homo sapiens, UniProt P14902); assay: Enzyme-based IDO1 inhibitory assay (UV–vis, product at 320 nm); assay type: biochemical; details: for IC50: 100 μM L-Trp, mean ± SD, three determinations; for Ki: L-Trp 50, 100, 150 μM, [S]/[V] against [I] plot (Cornish-Bowden); for Type of Inhibition: position of intersections in [S]/[V] against [I] plot
# T1 sequence (P14902 whole entry): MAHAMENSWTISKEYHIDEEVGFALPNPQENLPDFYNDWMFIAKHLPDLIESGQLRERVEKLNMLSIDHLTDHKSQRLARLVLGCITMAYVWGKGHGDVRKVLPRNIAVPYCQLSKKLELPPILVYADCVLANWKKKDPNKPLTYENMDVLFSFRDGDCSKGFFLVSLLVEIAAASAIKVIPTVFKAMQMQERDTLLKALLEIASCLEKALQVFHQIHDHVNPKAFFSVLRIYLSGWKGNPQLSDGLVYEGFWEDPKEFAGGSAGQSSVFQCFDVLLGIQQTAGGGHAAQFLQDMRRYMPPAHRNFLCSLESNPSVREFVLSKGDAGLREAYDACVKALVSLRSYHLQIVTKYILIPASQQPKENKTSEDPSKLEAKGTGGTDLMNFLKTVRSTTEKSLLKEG
# Protocol: The IDO1 inhibitory assay was performed according to standard literature protocols with some modifications. The UV–vis method was used for evaluating the inhibitory activity of inhibitors against IDO1. Specifically, IDO1 (1 μM, 1 mL) was prepared by phosphate buffer (100 mM, pH 6.5) containing catalase (200 μg/mL), methylene blue (10 μM), and ascorbic acid (10 mM, pH 6.5). Concentrations of every inhibitor were varied from 1 to 200 μM, and experimental samples were incubated at 37 °C for 10 min. Then, a certain concentration of L-Trp was added before monitoring the product at 320 nm by UV–vis spectrophotometer immediately.
# The inhibition percent of each inhibitor was determined by [1 − (A/B)] × 100%, where A is the enzymatic activity of IDO1 with inhibitor added and B is the absence of the inhibitor. […] The plot was described by the percent inhibition against Log10 concentration of the inhibitor.
# Ki values of inhibitors were obtained by intersection of the three fitted lines in the plot, which was the absolute value of the X-axis value of the intersection. The plot was described by [S]/[V] against inhibitor concentration, where [S] and [V] were the substrate concentration and the reaction velocity, respectively. Furthermore, protein-inhibitor binding modes were determined by the position of the intersections in the plot. Data processing was performed by Origin 7.5.
# [2] = target: IDO1 expressed in CT26 cells (Mus musculus, UniProt P28776); assay: IDO1 inhibitory assay in cell lines (kynurenine, IFN-γ induced), CT26; assay type: cell-based; details: 100 μM inhibitor concentration
# IDO1 expressed in CT26 cells, sequence (P28776 whole entry): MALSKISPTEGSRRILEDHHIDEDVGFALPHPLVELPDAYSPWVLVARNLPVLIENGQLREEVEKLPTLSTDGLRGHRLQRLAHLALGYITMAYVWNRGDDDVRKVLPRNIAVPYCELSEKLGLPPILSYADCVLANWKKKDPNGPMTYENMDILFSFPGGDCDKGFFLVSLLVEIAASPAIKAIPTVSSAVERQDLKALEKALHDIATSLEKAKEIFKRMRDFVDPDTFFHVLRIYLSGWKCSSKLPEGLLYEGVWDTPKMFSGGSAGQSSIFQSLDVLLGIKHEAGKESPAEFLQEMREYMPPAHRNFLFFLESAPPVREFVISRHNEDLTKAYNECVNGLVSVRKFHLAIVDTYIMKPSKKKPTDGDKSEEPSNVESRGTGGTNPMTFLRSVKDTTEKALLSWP
# Protocol: (§1) IDO1 cellular activity assay was carried out by standard literature protocols. […] First of all, cells grew in high glucose DMEM medium containing 10% FBS and antibiotics. […] Then, 1 × 10^4 cells were seeded in 96-well plates and cultivated in carbon dioxide incubator at 37 °C containing 5% CO2 for 24 h. On day two, each well in the plates were treated with fresh DMEM medium, which contained L-Trp (20 μg/mL), IFN-γ (10 ng/mL), and different concentrations of inhibitor. The plate was incubated for 48 h further. Then, 140 μL of supernatant from each well was transferred into centrifuge tubes correlatively. An amount of 10 μL of 30% trichloroacetic acid (w/v) was added to each tube aimed to precipitate proteins. Subsequently, sample incubation (65 °C, 30 min) was required to make the N′-formylkynurenine (NFK) change into kynurenine which was the final product. Soon afterwards, the sample was centrifuged at 8000 rpm for 10 min. An amount of 100 μL supernatant from each tube was transferred into a new 96-well plate with an equal amount of 2% pDMAB added. The concentration of kynurenine could be measured because it reacts with pDMAB to form a product with a UV–vis absorption at 492 nm. To estimate cell viability, 1 × 10^4 normal cells named L02 were seeded in 96-well flat bottom plates with a final volume of 200 μL of DMEM complete growth medium. After being incubated for 24 h at 37 °C, the culture was replaced by a fresh complete growth medium (200 μL) and four inhibitors (200 μM) were added individually. Then, 48 h later, the medium was replaced by PBS (180 μL) mixed with CCK8 solution (20 μL) in each well. Cell viability was evaluated by testing the OD450nm. Finally, all data in cell experiments were processed by GraphPad Prism 7.00 to obtain the IDO1 inhibitory percentage of each inhibitor in the cells and the cell viability.
# IDO1 [3] = target: T1, IDO1; assay: Determination of the inhibition types (reversible or irreversible; [V] versus [E] plot); assay type: biochemical; details: 100 μM inhibitor, 100 μM L-Trp
# Protocol: Based on the results of UV–vis spectra, the determination of inhibitory types was carried out according to the reference. The inhibitor was defined as reversible if the fitted lines were intersected in the plot (Figure 4A).
# Different concentrations of IDO1 (1 mL) were prepared with 100 mM phosphate buffer (pH 6.5) containing methylene blue (10 μM), catalase (200 μg/mL), and ascorbic acid (10 mM, pH 6.5). Each sample was incubated at 37 °C for 10 min. An amount of 100 μM L-Trp was added before measuring by UV–vis spectrophotometer at 320 nm. The only difference for the other set of groups was 100 μM inhibitor was added in each sample before incubating. The data were analyzed by Origin 7.5, and plot of reaction rate [V] versus enzyme amount [E] was proposed using linear fit. The determination of inhibitory types was based on the linear trend of the fitted plot.
# [4] = target: IDO1 expressed in HeLa cells (Homo sapiens, UniProt P14902); assay: IDO1 inhibitory assay in cell lines (kynurenine, IFN-γ induced), HeLa; assay type: cell-based; details: 100 μM inhibitor concentration
# IDO1 expressed in HeLa cells, sequence (P14902 whole entry): as the sequence (P14902 whole entry) above
# Protocol: as §1
# [5] = target: T2, IDO1 expressed in 4T1 cells (Mus musculus, UniProt P28776); assay: IDO1 inhibitory assay in cell lines (kynurenine, IFN-γ induced), 4T1; assay type: cell-based; details: 100 μM inhibitor concentration
# T2 construct: endogenous in cells; host or cells: 4T1 (IFN-γ induced)
# T2 sequence (P28776 whole entry): as the sequence (P28776 whole entry) above
# Protocol: as §1
# [6] = target: T3, IDO1 expressed in MCF-7 cells (Homo sapiens, UniProt P14902); assay: IDO1 inhibitory assay in cell lines (kynurenine, IFN-γ induced), MCF-7; assay type: cell-based; details: MCF7; 100 μM inhibitor concentration
# T3 construct: endogenous in cells; host or cells: MCF-7 (IFN-γ induced)
# T3 sequence (P14902 whole entry): as the sequence (P14902 whole entry) above
# Protocol: as §1
IC50 (IDO1 [1]) [µM],"increase of inhibitory activity by substituent modification (IDO1 [1]; IC50, methoxyl group at 6-position versus inhibitors 1 and 2) [times]",IDO1 inhibitory activity (IC50) relative to positive control 4−PI (IDO1 [1]; IC50 ratio versus 4−PI),Ki (IDO1 [1]) [µM],Type of Inhibition (IDO1 [1]),inhibition at 100 µM [2] [%],Inhibition type (reversible or irreversible) (IDO1 [3]),inhibition at 100 µM [4] [%],inhibition at 100 µM [5] [%],inhibition at 100 µM [6] [%],Compound
7.9 ± 1.7,3,~six-fold; also recorded: ~six times,63.6 ± 3.5,Uncompetitive,6.4 ± 0.8,reversible,26.7 ± 0.7,4.3 ± 0.1,27.8 ± 0.3,COC(=O)[C@H]1N[C@@H](c2ccccc2)[C@@]2(C(=O)Nc3cc(OC)ccc32)[C@@H]1c1ccccc1 [inhibitor 3]
29.4 ± 1.3,,,49.5 ± 6,Uncompetitive,4.2 ± 0.5,,27.1 ± 2.1,4.2 ± 1,22.4 ± 0.4,COC(=O)[C@H]1N[C@@H](c2ccccc2)[C@@]2(C(=O)Nc3cc(C)ccc32)[C@@H]1c1ccccc1 [inhibitor 2]
64.6 ± 3.9,,,101 ± 4.4,Uncompetitive,1.7 ± 0.5,,25.6 ± 1.3,2.8 ± 0.3,20.7 ± 0.1,COC(=O)[C@@H]1N[C@H](c2ccc(Br)cc2)[C@]2(C(=O)Nc3ccccc32)[C@H]1c1ccccc1 [inhibitor 4]
25.2 ± 3.6,,,42.3 ± 0.8,Uncompetitive,3.7 ± 0.8,,25.5 ± 1.5,2.6 ± 0.6,23.7 ± 2,COC(=O)[C@H]1N[C@@H](c2ccccc2)[C@@]2(C(=O)Nc3ccccc32)[C@@H]1c1ccccc1 [inhibitor 1]
